From paper PMC11615292, “Fast-diffusing receptor collisions with slow-diffusing peptide ligand assemble the ternary parathyroid hormone–GPCR–arrestin complex” (Nature Communications, 2024)

Tests used:
[1] = target: T1, βarr2L69C-BIM (Homo sapiens, UniProt P32121, C126S/C141L/C151V/C17S/C243V/C252V/C270S/C409S/C60V/L69C); assay: bimane fluorescence titration, single-site fit; type: binding
T1 construct: gene ARRB2; Cys-less full-length βarr2 with L69C in finger loop, labelled with monobromobimane at C69; E. coli NiCo21(DE3), pET-15b; N-terminal 6xHis-3C removed by 3C protease, GG-AviTag-GGSGGS linker kept
From the text: bimane fluorescence titration, single-site fit on βarr2L69C-BIM | PIP3 binds βarr2 with higher affinity than PIP2 and induces a conformational change | Like PIP2 and V2Rpp, PIP3 induced a concentration-dependent increase in bimane fluorescence

[2] = target: PTH type 1 receptor C-terminally fused to monomeric NeonGreen (PTH1R^mNG) (human) (UniProt Q03431)
Sequence of PTH type 1 receptor C-terminally fused to monomeric NeonGreen (PTH1R^mNG) (human) (Q03431 27-593): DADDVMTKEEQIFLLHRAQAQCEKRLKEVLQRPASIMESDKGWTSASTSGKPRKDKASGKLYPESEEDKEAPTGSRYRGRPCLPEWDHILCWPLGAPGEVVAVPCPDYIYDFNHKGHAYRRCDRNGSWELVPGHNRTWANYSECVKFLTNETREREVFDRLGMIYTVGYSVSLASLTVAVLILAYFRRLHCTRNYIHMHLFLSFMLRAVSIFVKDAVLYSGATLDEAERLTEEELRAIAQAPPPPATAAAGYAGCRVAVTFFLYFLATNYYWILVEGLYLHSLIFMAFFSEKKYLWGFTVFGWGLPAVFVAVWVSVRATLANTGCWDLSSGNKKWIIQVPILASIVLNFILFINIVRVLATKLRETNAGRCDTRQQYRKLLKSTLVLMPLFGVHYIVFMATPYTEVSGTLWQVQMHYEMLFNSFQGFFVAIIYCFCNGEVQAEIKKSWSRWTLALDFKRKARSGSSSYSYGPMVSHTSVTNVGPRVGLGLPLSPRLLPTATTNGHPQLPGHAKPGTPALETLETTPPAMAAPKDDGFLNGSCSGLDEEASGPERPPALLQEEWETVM

T1 sequence (P32121 whole entry C17S/C60V/L69C/C126S/C141L/C151V/C243V/C252V/C270S/C409S): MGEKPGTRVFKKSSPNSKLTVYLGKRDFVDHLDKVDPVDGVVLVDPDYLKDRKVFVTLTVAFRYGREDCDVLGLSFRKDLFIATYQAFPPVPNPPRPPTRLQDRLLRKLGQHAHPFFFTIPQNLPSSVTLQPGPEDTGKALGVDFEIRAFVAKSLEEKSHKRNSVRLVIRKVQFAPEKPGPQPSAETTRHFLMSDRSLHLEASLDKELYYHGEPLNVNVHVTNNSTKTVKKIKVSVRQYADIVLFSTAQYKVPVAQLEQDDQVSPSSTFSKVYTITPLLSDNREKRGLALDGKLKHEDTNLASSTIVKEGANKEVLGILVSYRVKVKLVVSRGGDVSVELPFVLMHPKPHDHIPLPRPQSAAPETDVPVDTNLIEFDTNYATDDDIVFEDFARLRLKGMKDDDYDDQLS

Row | Kd [1] | average diffusion coefficient (D) of PTH1R^mNG molecules in the presence of PTH^TMR (0.088 µm^2/s in the absence of the ligand), single-molecule tracking [2] | Molecule
1 | 64.8 ± 16.8 µM | – | CCCCCCCC(=O)OC[C@H](COP(=O)(O)O[C@@H]1[C@H](O)[C@H](O)[C@@H](OP(=O)(O)O)[C@H](OP(=O)(O)O)[C@H]1O)OC(=O)CCCCCCC [di-C8-PI(4,5)P2]
2 | 15.5 ± 2.6 µM | – | CCCCCCCC(=O)OC[C@H](COP(=O)(O)O[C@H]1[C@H](O)[C@@H](OP(=O)(O)O)[C@H](OP(=O)(O)O)[C@@H](OP(=O)(O)O)[C@H]1O)OC(=O)CCCCCCC [diC8-PI(3,4,5)P3]
3 | – | 0.02 µm^2/s | PTH(1-34) labeled in position 13 with tetramethylrhodamine (PTH^TMR) (peptide)
